This passage reports IC50 results from patent publication US11866431B2, “Bicyclic compounds” (Vivace Therapeutics, Inc., priority 2018, dated 2024).

Some results are limits rather than exact numbers.

For the assay, the system named is 8XTBD luciferase reporter (YAP reporter) in HEK293T cells. In words: YAP Reporter Assay. The class given is cell-based. The following applies: Homo sapiens, HEK-293T; HEK293T cells stably transfected with 8XTBD luciferase reporter and pRLTK; 24-hr incubation; top concentration 3 μM; read-out: Firefly Luciferase IC50. In a few lines:
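Dual-luciferase read-out after 24 h compound exposure at 37° C, 5% CO2; IC50 and maximum inhibition given separately for 8XTBD-firefly and TK-renilla signals. Stable HEK293T reporter cells, 3×10^3/well, received 10-point 1:3 series starting 3 μM final, in quadruplicate.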
On the technique in general: Reporter assays use an easily measured gene product as a stand-in for the process of interest.
As to `COc1cc(-c2ccc(C(F)(F)F)cc2F)c2ncc(C(=O)O)cc2c1` [Compound 321, 8-(2-fluoro-4-(trifluoromethyl)phenyl)-6-methoxyquinoline-3-carboxylic Acid], the half-maximal inhibitory concentration (IC50) was under 100 nM.
Consider `COc1cc(-c2ccc(C(F)(F)F)cc2)c2ccc(C(=O)O)cc2c1` [Compound 322, 7-methoxy-5-(4-(trifluoromethyl)phenyl)-2-naphthoic Acid], for which the IC50 is under 100 nM.
To `O=C(O)c1cnc2c(-c3ccc(C(F)(F)F)cc3)cc(OC3CC3)cc2c1` [Compound 323, 6-cyclopropoxy-8-(4-(trifluoromethyl)phenyl)quinoline-3-carboxylic acid] belongs under 100 nM.
To `O=C(O)c1cnc2c(-c3ccc(C(F)(F)F)cc3)cc(OC(F)(F)F)cc2c1` [Compound 324, 6-(Trifluoromethoxy)-8-[4-(trifluoromethyl)phenyl]quinoline-3-carboxylic acid] belongs under 100 nM; to `COc1cc(-c2ccc(C(F)(F)F)cc2)c2ncc(C(=O)O)cc2c1` [Compound 325, 6-methoxy-8-(4-(trifluoromethyl)phenyl)quinoline-3-carboxylic acid], under 100 nM.
Turning to `O=C(O)c1cnc2c(-c3ccc(C(F)(F)F)cc3)cc(Cl)c(Cl)c2c1` [Compound 326, 5,6-dichloro-8-(4-(trifluoromethyl)phenyl)quinoline-3-carboxylic Acid], the IC50 is under 100 nM.
Turning to `CCOc1cc(-c2ccc(C(F)(F)F)cc2)c2ncc(C(=O)O)cc2c1` [Compound 327, 6-ethoxy-8-(4-(trifluoromethyl)phenyl)quinoline-3-carboxylic Acid], the IC50 is under 100 nM.
`O=C(O)c1cnc2c(-c3ccc(C(F)(F)F)cc3)cc(F)c(F)c2c1` [Compound 328, 5,6-difluoro-8-(4-(trifluoromethyl)phenyl)quinoline-3-carboxylic Acid]: the half-inhibitory concentration (IC50) is under 100 nM.
With `O=C(O)c1ccc2c(-c3ccc(S(F)(F)(F)(F)F)cc3)cccc2c1` [Compound 329, 5-[4-(pentafluoro-sulfanyl)phenyl]naphthalene-2-carboxylic Acid], the IC50 was under 100 nM.
With `O=C(O)c1ccc2c(-c3ccc(C(F)(F)F)cc3)cccc2c1` [Compound 330, 5-[4-(trifluoromethyl)phenyl]naphthalene-2-carboxylic Acid], the IC50 was under 100 nM.
To `O=C(O)c1ccc2c(-c3ccc(C(F)(F)F)nc3)cccc2c1` [Compound 331, 5-(6-(trifluoromethyl)pyridin-3-yl)-2-naphthoic Acid] belongs 100 to 1000 nM; to `O=C(O)c1ccc2c(-c3ccc(C(F)(F)F)s3)cccc2c1` [Compound 332, 5-[5-(trifluoromethyl)-2-thienyl]naphthalene-2-carboxylic acid], under 100 nM.
Regarding `O=C(O)c1ccc2c(-c3ccc(C(F)(F)F)cc3)cccc2n1` [Compound 333, 5-(4-(trifluoromethyl)phenyl)quinoline-2-carboxylic Acid], the IC50 fell in the range of 100 to 1000 nM.
Turning to `O=C(O)c1cnc2c(-c3ccc(C(F)(F)F)cc3)cccc2n1` [Compound 334, 5-(4-(trifluoromethyl)phenyl)quinoxaline-2-carboxylic Acid], the half-maximal inhibitory concentration (IC50) lay within 100 to 1000 nM.
`O=C(O)c1ccc2c(-c3ccc(C(F)(F)F)cc3)cccc2c1O` [Compound 335, 1-hydroxy-5-(4-(trifluoromethyl)phenyl)-2-naphthoic Acid]: the IC50 was under 100 nM.
Turning to `O=C(O)c1ccc2c(-c3ccc(C(F)(F)F)cc3)cncc2c1` [Compound 336, 4-[4-(trifluoromethyl)phenyl]isoquinoline-7-carboxylic Acid], the half-inhibitory concentration (IC50) lay in the range of 100 to 1000 nM.
Consider `Cn1cc(-c2ccc(C(F)(F)F)cc2)c2ccc(C(=O)O)cc2c1=O` [Compound 337, 2-methyl-1-oxo-4-[4-(trifluoromethyl)phenyl]isoquinoline-7-carboxylic Acid], for which the IC50 lay within 100 to 1000 nM.

As usually defined, the IC50 is the midpoint of a concentration-inhibition curve.
